In patent publication US20070167412A1, “HALOCOMBSTATINS AND METHODS OF SYNTHESIS THEREOF” (ARIZONA BOARD OF REGENTS, priority 2003, published 2007):

Tests used:
Pancreas BXPC-3 = experiment: human cancer cell growth inhibition, sulforhodamine B assay; assay type: cell-based; settings: Table I; 48 hours
Method: (§1) Inhibition of human cancer cell growth was assessed using the National Cancer Institute's standard sulforhodamine B assay. After 48 hours, the plates were fixed with trichloracetic acid, stained with sulforhodamine B and read with an automated microplate reader. […] Inhibition of the mouse leukemia P388 cells was assessed in a 10% horse serum/Fisher medium soution for 24 hours, followed by a 48 hour incubation with serial dilutions of the compounds. Cell growth inhibition (ED50) was then calculated using a Z1 Becleman/Coulter particle counter.

Colon KM20L2 = experiment: as above; assay type: cell-based; settings: Table I; 48 hours
Method: as §1

Prostate DU-145 = experiment: as above; assay type: cell-based; settings: Table I; 48 hours
Method: as §1

CNS SF268 = experiment: as above; assay type: cell-based; settings: Table I; 48 hours
Method: as §1

Breast MCF-7 = experiment: as above; assay type: cell-based; settings: Table I; 48 hours
Method: as §1

Lung-NSC NCI-H460 = experiment: as above; assay type: cell-based; settings: Table I; 48 hours
Method: as §1

Staphylococcus aureus = experiment: reference broth microdilution susceptibility assay; assay type: cell-based; settings: Table III
Source text: (§2) The halocombstatins of the present invention appear to also have antimicrobial properties. More specifically, they appear to have antifungal and/or antibacterial properties. Antimicrobial evaluation of the halocombstatins involved susceptibility testing performed by the reference broth microdilution assay. The antimicrobial activities of the halocombstatins were very similar, targeting Gram-positive bacteria and the pathogenic fungi Cryptococcus neoformans, and results are shown in Table III.
(§3) (See Pettit, G. R., et al., Antineoplastic Agents 463. Synthesis of Combretastatin A-3 Diphosphates, Anticancer Drug Design 2000, 15, 397-404.) To determine the antimicrobial activity of the present compounds, susceptibility testing was performed by the reference broth microdilution assay. (See National Committee for Clinical Laboratory Standards. Methods for Dilution Antimicrobial Susceptibility Tests for Bacteria that Grow Aerobically. Approved Standard M7-A5. Wayne, P A: NCCLS, 2000. National Committee for Clinical Laboratory Standards. Reference Method for Broth Dilution Antifungal Susceptibility Testing of Yeasts. Aproved Standard M27-A. Wayne, P A: NCCLS, 1997.) The antimicrobial activities of the halocombretastatins of the present invention were very similar, targeting Gram-positive bacteria and Cryptococcus neoformans. This is illustrated in further detail in Table III. Thus, several of the novel compounds of the present invention appear to have potential as antimicrobial agents, such as antifingals and antibacterials.

Enterococcus faecalis = experiment: reference broth microdilution susceptibility assay; assay type: cell-based; settings: Table III
Source text: as §2, §3

Neisseria gonorrhoeae = experiment: reference broth microdilution susceptibility assay; assay type: cell-based; settings: Table III
Source text: as §2, §3

Streptococcus pneumoniae = experiment: reference broth microdilution susceptibility assay; assay type: cell-based; settings: Table III
Source text: as §2, §3

Candida albicans = experiment: reference broth microdilution susceptibility assay; assay type: cell-based; settings: Table III
Source text: as §2, §3

[1] = test system: Stenotrophomonas maltophilia; experiment: reference broth microdilution susceptibility assay; assay type: cell-based; settings: Table III
Source text: as §2, §3

Cryptococcus neoformans = experiment: reference broth microdilution susceptibility assay; assay type: cell-based; settings: Table III
Source text: as §2, §3

Escherichia coli = experiment: reference broth microdilution susceptibility assay; assay type: cell-based; settings: Table III
Source text: as §2, §3

Enterobacter cloacae = experiment: reference broth microdilution susceptibility assay; assay type: cell-based; settings: Table III
Source text: as §2, §3

Micrococcus luteus = experiment: reference broth microdilution susceptibility assay; assay type: cell-based; settings: Table III
Source text: as §2, §3

[2] = test system: human umbilical vein endothelial cells (HUVEC); experiment: Matrigel cord formation assay; assay type: cell-based; design: key to Lengths of Cords: −: No Cords; +: Small; ++: ˜50% of Control; +++: Same as Control; settings: 24 hours, compared to untreated controls
Method: (§4) In vitro Matrigel antiangiogenesis assays were implemented according to the Developmental Therapeutics Program NCI/NIH protocols known to one of skill in the art. Matrigel, a basement membrane matrix, was obtained from BD Biosciences. Growth inhibition and cord formation assays were Conducted using human umbilical vein endothelial cells obtained from GlycoTeCh. HUVEC cells were grown in EGM-2 medium.
(§5) An aliquot of sixty microliters was placed in each well of an ice-cold 96-well plate. The plates were then left for 15 minutes at room temperature, then incubated for 30 minutes at 37° C. to permit the matrigel to polymerize. Meanwhile, HUVEC cells were harvested and diluted to a concentration of 2×10^5 cells/ml. A solution of 100 μL containing the compounds to be tested was added next. After 24 hours incubation, pictures were taken for each concentration using an inverted Nikon Diaphot microscope and D100 digital camera. Drug effect was assessed, compared to untreated controls, by measuring the length of cords formed and number ofjunctions.

[3] = test system: human umbilical vein endothelial cells (HUVEC); experiment: HUVEC growth inhibition, sulforhodamine B assay; assay type: cell-based; settings: for Relative % Growth: HUVEC; for Human Umbilical Vein Endothelial Cell (HUVEC) Inhibition Values (GI50): Table V
Method: as §4
The standard sulforhodamine B assay (see Cancer Cell Line Procedures above) was used to evaluate results using HUVEC cells. IC50 or ED50 (drug concentration causing 50% inhibition) was calculated from the plotted data.

[4] = test system: human umbilical vein endothelial cells (HUVEC); experiment: Matrigel cord formation assay; assay type: cell-based; design: key: −: No Junctions; +: Few; ++: ˜50% of Control; +++: Same as Control; settings: 24 hours, compared to untreated controls
Method: as §4, §5

COc1ccc(/C=C\c2cc(I)c(OC)c(OC)c2)cc1C(C)=O
melting point: 103 to 104 °C

3-Brombo-4,4′,5-trimethoxy-3′-hydroxy-E-stilbene [Compound 13b]
Human cancer cell line inhibition (GI50) Pancreas-a BXPC-3 (Pancreas BXPC-3): 1.6 µg/mL
Human cancer cell line inhibition (GI50) Colon KM20L2 (Colon KM20L2): 1.2 µg/mL
Human cancer cell line inhibition (GI50) Prostate DU-145 (Prostate DU-145): 0.13 µg/mL
Human cancer cell line inhibition (GI50) CNS SF268 (CNS SF268): 0.18 µg/mL
Human cancer cell line inhibition (GI50) Breast adn MCF-7 (Breast MCF-7): 0.14 µg/mL
Human cancer cell line inhibition (GI50) Lung-NSC NCI-H460 (Lung-NSC NCI-H460): 0.15 µg/mL
Range of minimum inhibitory concentration, Staphylococcus aureus (Staphylococcus aureus): * (no inhibition at 64 μg/ml)
Range of minimum inhibitory concentration, Enterococcus faecalis (Enterococcus faecalis): * (no inhibition at 64 μg/ml)
Range of minimum inhibitory concentration, Neisseria gonorrhoeae (Neisseria gonorrhoeae): * (no inhibition at 64 μg/ml)
Range of minimum inhibitory concentration, Streptococcus pneumoniae (Streptococcus pneumoniae): * (no inhibition at 64 μg/ml)
Range of minimum inhibitory concentration, Candida albicans (Candida albicans): * (no inhibition at 64 μg/ml)
Range of minimum inhibitory concentration, Stenotrophomonas maltophilia [1]: * (no inhibition at 64 μg/ml)
Range of minimum inhibitory concentration, Cryptococcus neoformans (Cryptococcus neoformans): * (no inhibition at 64 μg/ml)
Range of minimum inhibitory concentration, Escherichia coli (Escherichia coli): * (no inhibition at 64 μg/ml)
Range of minimum inhibitory concentration, Enterobacter cloacae (Enterobacter cloacae): * (no inhibition at 64 μg/ml)
Range of minimum inhibitory concentration, Micrococcus luteus (Micrococcus luteus): * (no inhibition at 64 μg/ml)

3-Fluoro-4,4′,5-trimethoy-3′-hydroxy-E-stilhene [Compound 11b]
Human cancer cell line inhibition (GI50) Pancreas-a BXPC-3 (Pancreas BXPC-3): 2.2 µg/mL
Human cancer cell line inhibition (GI50) Colon KM20L2 (Colon KM20L2): 0.53 µg/mL
Human cancer cell line inhibition (GI50) Prostate DU-145 (Prostate DU-145): 0.18 µg/mL
Human cancer cell line inhibition (GI50) CNS SF268 (CNS SF268): 0.35 µg/mL
Human cancer cell line inhibition (GI50) Breast adn MCF-7 (Breast MCF-7): 0.051 µg/mL
Human cancer cell line inhibition (GI50) Lung-NSC NCI-H460 (Lung-NSC NCI-H460): 0.18 µg/mL
Range of minimum inhibitory concentration, Staphylococcus aureus (Staphylococcus aureus): 32 to 64 µg/mL
Range of minimum inhibitory concentration, Enterococcus faecalis (Enterococcus faecalis): * (no inhibition at 64 μg/ml)
Range of minimum inhibitory concentration, Neisseria gonorrhoeae (Neisseria gonorrhoeae): 8 to 16 µg/mL
Range of minimum inhibitory concentration, Streptococcus pneumoniae (Streptococcus pneumoniae): 64 µg/mL
Range of minimum inhibitory concentration, Candida albicans (Candida albicans): * (no inhibition at 64 μg/ml)
Range of minimum inhibitory concentration, Stenotrophomonas maltophilia [1]: * (no inhibition at 64 μg/ml)
Range of minimum inhibitory concentration, Cryptococcus neoformans (Cryptococcus neoformans): 64 µg/mL
Range of minimum inhibitory concentration, Escherichia coli (Escherichia coli): * (no inhibition at 64 μg/ml)
Range of minimum inhibitory concentration, Enterobacter cloacae (Enterobacter cloacae): * (no inhibition at 64 μg/ml)
Range of minimum inhibitory concentration, Micrococcus luteus (Micrococcus luteus): 16 to 32 µg/mL

Sodium 3,5-diiodo-4,4′dimethoxy-z-stilbene 3′-O-phosphate [Compound T (Table Ia)]
Lengths of Cords ([2]; 0.1 μg/ml): +
Lengths of Cords ([2]; 1 μg/ml): −
Relative % Growth ([3]; 0.0001 μg/ml): >100%
Relative % Growth ([3]; 0.01 μg/ml): >100%
Relative % Growth ([3]; 0.1 μg/ml): −2%
Relative % Growth ([3]; 1 μg/ml): −7%
Human Umbilical Vein Endothelial Cell (HUVEC) Inhibition Values (GI50) [3]: 0.051 µg/mL
Number of junctions ([4]; 1 μg/ml): −

Sodium 3-fluoro-4,4′,5-trimethoxy-Z-stilbene 3′-O-phosphate [Compound 18a]
Human cancer cell line inhibition (GI50) Pancreas-a BXPC-3 (Pancreas BXPC-3): 0.59 µg/mL
Human cancer cell line inhibition (GI50) Colon KM20L2 (Colon KM20L2): 1.5 µg/mL
Human cancer cell line inhibition (GI50) Prostate DU-145 (Prostate DU-145): 0.0036 µg/mL
Human cancer cell line inhibition (GI50) CNS SF268 (CNS SF268): 0.0051 µg/mL
Human cancer cell line inhibition (GI50) Breast adn MCF-7 (Breast MCF-7): 0.0044 µg/mL
Human cancer cell line inhibition (GI50) Lung-NSC NCI-H460 (Lung-NSC NCI-H460): 0.0094 µg/mL
Range of minimum inhibitory concentration, Staphylococcus aureus (Staphylococcus aureus): * (no inhibition at 64 μg/ml)
Range of minimum inhibitory concentration, Enterococcus faecalis (Enterococcus faecalis): * (no inhibition at 64 μg/ml)
Range of minimum inhibitory concentration, Neisseria gonorrhoeae (Neisseria gonorrhoeae): 16 µg/mL
Range of minimum inhibitory concentration, Streptococcus pneumoniae (Streptococcus pneumoniae): * (no inhibition at 64 μg/ml)
Range of minimum inhibitory concentration, Candida albicans (Candida albicans): * (no inhibition at 64 μg/ml)
Range of minimum inhibitory concentration, Stenotrophomonas maltophilia [1]: * (no inhibition at 64 μg/ml)
Range of minimum inhibitory concentration, Cryptococcus neoformans (Cryptococcus neoformans): * (no inhibition at 64 μg/ml)
Range of minimum inhibitory concentration, Escherichia coli (Escherichia coli): * (no inhibition at 64 μg/ml)
Range of minimum inhibitory concentration, Enterobacter cloacae (Enterobacter cloacae): * (no inhibition at 64 μg/ml)
Range of minimum inhibitory concentration, Micrococcus luteus (Micrococcus luteus): * (no inhibition at 64 μg/ml)

Sodium 3-iodo-4,4′,5-trimethoxy-z-stilbene 3′-O-phosphate [Compound 20a]
Human cancer cell line inhibition (GI50) Pancreas-a BXPC-3 (Pancreas BXPC-3): 0.47 µg/mL
Human cancer cell line inhibition (GI50) Colon KM20L2 (Colon KM20L2): 0.37 µg/mL
Human cancer cell line inhibition (GI50) Prostate DU-145 (Prostate DU-145): 0.0078 µg/mL
Human cancer cell line inhibition (GI50) CNS SF268 (CNS SF268): 0.0052 µg/mL
Human cancer cell line inhibition (GI50) Breast adn MCF-7 (Breast MCF-7): 0.012 µg/mL
Human cancer cell line inhibition (GI50) Lung-NSC NCI-H460 (Lung-NSC NCI-H460): 0.0031 µg/mL
Lengths of Cords ([2]; 0.001 μg/ml): +
Lengths of Cords ([2]; 0.01 μg/ml): −
Lengths of Cords ([2]; 0.1 μg/ml): −
Relative % Growth ([3]; 0.0001 μg/ml): 104%
Relative % Growth ([3]; 0.001 μg/ml): 5%
Relative % Growth ([3]; 0.01 μg/ml): 14%
Relative % Growth ([3]; 0.1 μg/ml): 7%
Human Umbilical Vein Endothelial Cell (HUVEC) Inhibition Values (GI50) [3]: 0.00035 µg/mL
Range of minimum inhibitory concentration, Staphylococcus aureus (Staphylococcus aureus): * (no inhibition at 64 μg/ml)
Range of minimum inhibitory concentration, Enterococcus faecalis (Enterococcus faecalis): * (no inhibition at 64 μg/ml)
Range of minimum inhibitory concentration, Neisseria gonorrhoeae (Neisseria gonorrhoeae): 16 to 32 µg/mL
Range of minimum inhibitory concentration, Streptococcus pneumoniae (Streptococcus pneumoniae): * (no inhibition at 64 μg/ml)
Range of minimum inhibitory concentration, Candida albicans (Candida albicans): * (no inhibition at 64 μg/ml)
Range of minimum inhibitory concentration, Stenotrophomonas maltophilia [1]: * (no inhibition at 64 μg/ml)
Range of minimum inhibitory concentration, Cryptococcus neoformans (Cryptococcus neoformans): * (no inhibition at 64 μg/ml)
Range of minimum inhibitory concentration, Escherichia coli (Escherichia coli): * (no inhibition at 64 μg/ml)
Range of minimum inhibitory concentration, Enterobacter cloacae (Enterobacter cloacae): * (no inhibition at 64 μg/ml)
Range of minimum inhibitory concentration, Micrococcus luteus (Micrococcus luteus): * (no inhibition at 64 μg/ml)
Number of junctions ([4]; 0.001 μg/ml): +
Number of junctions ([4]; 0.01 μg/ml): −
Number of junctions ([4]; 0.1 μg/ml): −
